Data as given in patent US10039729B2, “Use of kukoamine A and kukoamine B” (Tianjin Chase Sun Pharmaceutical Co., Ltd., priority 2010, dated 2018).
Like-named read-outs stand apart in the source and are kept apart here.

How the values were obtained:
RAW264.7 cells = assay: Cell vitality of RAW264.7 cells (MTT assay); format: cell-based, murine; conditions: 24 h; for RAW264.7 cells vitality (OD550): 200 μg/ml, p>0.05
Procedure: (1) Influence on vitality of RAW264.7 cells: According to embodiment 7, for the purpose of experiment a medium group, KB group (25, 50, 100, 200, 400 and 800 μM), a LPS (100 ng/ml)+KB (0, 100, 200 and 400 μM) group and a CpG DNA (10 μg/ml)+KB (0, 100, 200 and 400 μM) group were established; MTT was dissolved with PBS to make 5 mg/ml solution and filtered, which served as stock solution and stored at −20° C. for further detection; RAW264.7 cells were adjusted to 1×10^6/ml in DMEM medium, added into 96-well plates (200 μl per well), and cultured at 37° C. in a 5% CO2 humidified incubator for 4 h; the specified concentration of LPS, CpG DNA and KB were separately loaded according to the grouping; cells were cultured at 37° C. in a 5% CO2 humidified incubator for 24 h, centrifuged at 1000 rpm/min for 5 min; the supernatant was sucked and discarded; each well was added with 180 μl cell culture medium and 20 μl MTT stock solution, then cultured at 37° C. in a 5% CO2 humidified incubator for 4 h, and centrifuged at 1000 rpm/min for 10 min; then the supernatant was sucked and discarded; each well was added with 150 μl DMSO, and shook for 10 min for the dissolution of the crystals; RAW264.7 cells vitality was expressed as absorbance values at 550 nm of each well, which were instantly assayed by ELIASA.

[1] = Affinity biosensor binding with LPS
Description: Immobilization of lipid A and CpG DNA: Using Optically-Based Affinity Biosensors technology, Lipid A, the biologic active centres of LPS, and CpG DNA were respectively, immobilized on the reacting surfaces of cuvettes in an IAsys plus affinity biosensor according to the manufacturer's instructions of IAsys Affinity Sensor. The end of hydrophobic side chain of lipid A was immobilized on cuvette with hydrophobic surface, and the phosphate group (active group of lipid A) at the other end was floating and exposing to the outside, which act as target spot of binding with active constituents for disease treatment in traditional Chinese medicine. The active constituents in solution were binded to lipid A through electrostatic interaction. Biotinylated CpG DNA was immobilized on the surface of a biotin cuvette by linking to avidin, which had been coated on the surface of a biotin cuvette, and then the unlabeled group of CpG DNA was floating and exposing to the outside, which act as target spot of binding with active constituents for disease treatment in traditional Chinese medicine. The active constituents in solution were binded to CpG DNA through the electrostatic interaction and embodiment.
Detection of the aqueous herbal extract: The crude drugs of 114 traditional Chinese herbs were pulverized. 1 g of each powder was added with 10 ml distilled water, boiled at 100° C. for 1.5 h, centrifuged at 4000 rpm for 20 min, filtrated and then collected the supernatant. 5 μl of aqueous herbal extracts of each herb were used to detect their binding with lipid A or CpG DNA. […]
9.1 Methods: KB was separately diluted with PBS to make solutions of 0.25, 0.5, 1, 2 and 4 μM; 5 μl of each solution was separately loaded; binding reaction of KB of various concentration with LPS and CpG DNA was assayed according to the methods in embodiment 1. The dissociation equilibrium constant (KD) of KB with LPS and CpG DNA was calculated using the IAsys FASTfit software. […]

[2] = tested on: murine peritoneal macrophages; assay: Release of TNF-α and IL-6 in murine peritoneal macrophages induced by LPS and CpG DNA (ELISA); format: cell-based, KM mice; conditions: 50, 100 and 200 μM, TNF-α at 4 h, IL-6 at 12 h
Procedure: Separation and culture of murine peritoneal macrophages: KM mice were killed by cervical dislocation and immediately immersed in 75% ethanol for skin degerming; then abdominal skin was aseptically cut open; precooling DMEM cell culture medium was slowly injected in exposed peritoneum with a 5 ml syringe; murine abdomen was gently massaged for sufficient cell collection; subsequently, DMEM was withdrew, transferred into 10 ml centrifuge tube, centrifuged at 500 rpm for 5 min, resuspended in DMEM supplemented with 10% (v/v) NCS, transferred into cell culture bottle, and then cultured at 37° C. in a 5% CO2 humidified incubator for 2 h; culture medium was replaced with fresh culture medium to remove unattached cells; over 95% of the remained cells were murine peritoneal macrophages, which continued to be cultured and proliferated.
Loading and detection: According to the method in embodiment 6, KB and PMB were separately diluted in DMEM supplemented with 10% (v/v) NCS and transferred into culture medium of […] to achieved final concentrations of 50, 100 and 200 μM; RAW264.7 cells continued to be incubated; the supernatant was collected four hours later for TNF-α detection; the supernatant at were collected 12 hours later for IL-6 detection; the concentration of TNF-α and IL-6 of each group was detected according to the manufacturer's instructions of ELISA kit; result was expressed by means of mean±standard deviation.

Row | Compound | RAW264.7 cells vitality (OD550) (RAW264.7 cells) | Kd ([1]; KB 0.25-4 μM, IAsys FASTfit, read-out: dissociation equilibrium constant (KD) with LPS) [nM] | Kd ([1]; with LPS, read-out: dissociation equilibrium constant (KD = kass/kdiss)) [nM] | release of TNF-α and IL-6 induced by CpG DNA [2] | release of TNF-α and IL-6 induced by LPS [2] | absorbance values (vitality of RAW264.7 cells) vs medium group (RAW264.7 cells; KB 25-800 μM, or KB 0-400 μM plus LPS 100 ng/ml or CpG DNA 10 μg/ml) | affinity with LPS ([1]; 4 μM solution, 5 μl loaded)
1 | O=C(CCc1ccc(O)c(O)c1)NCCCNCCCCNCCCNC(=O)CCc1ccc(O)c(O)c1 [KA, Kukoamine A] | no influence on RAW264.7 cells vitality | – | – | – | – | – | –
2 | NCCCN(CCCCNCCCNC(=O)CCc1ccc(O)c(O)c1)C(=O)CCc1ccc(O)c(O)c1 [KB, Kukoamine B] | no influence on RAW264.7 cells vitality | 1240 | 1240 | inhibit the release of TNF-α and IL-6 | inhibit the release of TNF-α and IL-6 | no statistic difference on absorbance values | –
3 | polymyxin B [PMB, reference compound] | – | – | – | can only inhibit the release of TNF-α and IL-6 induced by LPS | inhibit the release of TNF-α and IL-6 | – | high affinity
